Assay results from patent US20210392882A1, “METHODS AND COMPOSITIONS FOR IMPROVED INSECT REPELLENCY” (Board of Trustees of Michigan State University, priority 2020, published 2021).

Legend:
[1] = test system: Ae. aegypti mosquitoes; assay: Hand-in-cage spatial repellency assay; type: in vivo, Aedes aegypti
From the text: The hand-in-cage assay employed was similar to the hand-in-glove assay described by Boyle et al. (bioRxiv, 060178 (2016)). The setup for the hand-in-cage assay includes a 30 cm×30 cm×30 cm mosquito cage (BioQuip, Rancho Dominguea, Calif.), with a mounted digital camera and a human hand in a modified glove with a screened window. The digital camera (e-con Systems Inc, San Jose, Calif., model: e-CAM51A) for video recording is mounted on the cage top and connected to a laptop computer. A nitrile rubber glove (Ansell Protective Products, Coshoton, Ohio, part number: 37-155) was cut on the back side of the glove to create a window (6 cm×5 cm) (FIG. 1A). A piece of magnetic frame (slightly larger than the dimension of the window) was glued onto the cut window which was used as a base for stacking more magnetic window frames (FIG. 1A; further explained below). One piece of test compound-treated polyester netting (Shason Textile Inc., part number: WS-B532-111, white; slightly larger than the dimension of the window) was placed on this fixed magnetic frame, which was ˜3.0 mm above the glove. The second piece of the netting was untreated and placed ˜6.0 mm above the treated net using a stack of four magnetic frames. The stacked magnetic frames were further secured with a binder clip. The stacking creates sufficient space between the treated net and the untreated net so that mosquitoes that land on the open window were not able to contact treated net, or to contact and pierce skin of a hand in the glove. The hand makes no contact with the treated net.
The assay was run in a room with humidity between around 50% and temperature between 27° C. to 30° C. Twenty-four hours before an assay, four to nine days-old females (about 40, mated, non-blood fed) were transferred into a mosquito cage. The cage was kept in an incubator where mosquitoes were provided only with water in a cotton ball placed on the top of the cage. Immediately before the assay, one researcher treated pieces of netting with 500 μl test compound dissolved in acetone in a glass Petri dish in an adjacent room. Acetone served a control. After letting acetone evaporate (˜7 min), the researcher assembled and put on a modified glove. In the meantime, a second researcher or a lab assistant transferred the prepared cage from the incubator to a bench in the assay room. Both personnel avoided use of any hand lotions and cosmetic products before an assay and wore white lab coats and gloves during the assay. The hand with the modified glove was introduced into the cage to initiate the assay. Mosquitoes landing on the test window was recorded by the digital camera for five minutes. The number of mosquitoes landing during the second to fifth minutes was counted and recorded. For each cage, solvent (acetone) control was tested first and then followed with a treatment. Data from any cage that gave a low landing number in a control trial were discarded. The time interval of assays between control and treatment was at least 1.5 hours, allowing the mosquitoes to fully recover and residual vapors from experiments to be ventilated out of the room. Percentage repellency was determined for each cage using the following equation:
Percentage repellency=[1−(cumulative number of mosquitoes landed on the window of treatment/cumulative number of mosquitoes landed on the window of solvent treatment)]×100).
The spatial repellency of pyrethrum was examined using a hand-in-cage assay (Ogoma et al. PLoS neglected tropical diseases 11, e0005455 (2017)). In this behavioral assay, mosquitoes were attracted to a human hand in a modified glove (FIG. 1A) with a screened window on the back of the glove. The mosquitoes landed on a piece of control mesh secured on the top of the window. Between the control mesh and the hand is another mesh treated with a test compound, with which mosquitoes cannot make direct contact (FIG. 1A).

[2] = test system: sst-1 sensilla (sst-1A and sst-1B neurons); assay: Single sensillum recording (SSR) of antennal sst-1 sensilla; type: cell-based, Aedes aegypti; conditions: wild-type ROCK; pyrethrum at 10^−2
Experimental: Single sensilla recording was conducted as described in Liu et al. J Insect Physiol 59, 1169-1177 (2013). Female mosquitoes 4 days after eclosion were anaesthetized (2-3 min on ice) and mounted on a microscope slide (76×26 mm). An antenna was fixed using a double-sided tape to a cover slip resting on a small ball of dental wax to facilitate manipulation. The cover slip was placed at an appropriate angle to the mosquito head. Once mounted, the specimen was placed under a microscope (Nikon SMA645, Japan) and the antenna viewed at a high magnification (1000×). Two tungsten microelectrodes were sharpened in 10% KNO2 at 2-10 V. The reference electrode, which was connected to ground, was inserted into the compound eye of the mosquito and the other was connected to the preamplifier (10×, Syntech, Kirchzarten, Germany) and inserted into the shaft of an olfactory sensillum to complete the electrical circuit to extracellularly record olfactory receptor neuron potentials (Den Otter et al., Journal of Insect Physiology 26, 465-472 (1980)). Controlled manipulation of the electrodes was performed using a micromanipulator (Burleigh PCS-6000, CA). The preamplifier was connected to an analog-to-digital signal converter (IDAC-4, Syntech, Germany), which in turn was connected to a computer for signal recording and visualization. The activity of co-located olfactory receptor neurons in each sensillum was assessed based on the differences in spike amplitude. The large spike amplitude was designated as cell A and the olfactory receptor neuron with the small spike amplitude was designated cell B (Ghaninia et al. Eur J Neurosci 26, 1611-1623 (2007)). Signals were recorded for 10 seconds starting 1 second before stimulation, and the action potentials were counted off-line over a 500-ms period before and after stimulation. The spontaneous firing rates observed in the preceding 500 milliseconds (ms) were subtracted from the total spike rates observed during the 500-ms stimulation, and counts were recorded in units of spikes/second.
Eighteen compounds besides pyrethrum from different chemical classes were selected for functional classification of olfactory sensilla with various morphological shapes (Extended Data FIG. 2). Each compound was diluted in dimethyl sulfoxide (DMSO) to a stock solution with a concentration of 100 μg/μl. Subsequently, a series of 10-fold dilutions were made from each of the stock solutions for each compound tested. For each dilution, a 10 μl portion was dispersed onto a filter paper strip (4×10 mm), which was then inserted into a Pasteur pipette to create the stimulus cartridge. A sample containing the solvent alone served as control. The airflow across the antennae was maintained constant at a 20 ml/second throughout the experiment. Purified and humidified air was delivered to the preparation through a glass tube (10-mm inner diameter) perforated by a small hole 10 cm away from the end of the tube, into which the tip of the Pasteur pipette could be inserted. The stimulus was delivered to the sensilla by inserting the tip of the stimulus cartridge into this hole and diverting a portion of the air stream (0.5 l/min) to flow through the stimulus cartridge for 500 ms using a stimulus controller (Syntech, Germany). The distance between the end of the glass tube and the antennae was ≤1 cm. The number of spikes/second was obtained by averaging the results for each sensillum/compound combination.
To identify which mosquito olfactory receptor neuron(s) responds to pyrethrum, single sensillum recordings (SSR) were performed of Ae. aegypti antennal olfactory sensilla in response to a panel of odorants (FIG. 2C-2L), most of which are plant-derived mosquito repellents, such as pyrethrum, (±)-citronellal, geranyl acetate and (−)-borneol. Three responsive sst sensilla were identified, sst1-3, and six responsive sbt sensilla, sbt1-6, based on their response profiles to the odorants in the panel (FIG. 2B, 2D-2L).

CC1(C)C2CCC1(C)C(O)C2 (single isomer, unassigned; (-)) [(−)-borneol]
repellency, Orlando vs orco−/− ([1]; 10^−2 dilution, FIG. 4I): Orco-mediated | effect of (E)-β-farnesene on repellency of the compound ([1]; EBF 4 ppm, P-I 1000 ppm, P-II 1000 ppm, (−)-borneol 100 ppm, ROCK, FIG. 4D): No enhancement | response of sst-1A neuron [2]: activates
